Consider two molecules from PMC9203275, “Lysosome lipid signalling from the periphery to neurons regulates longevity” (Nature Cell Biology, 2022).

Test [1] addresses T1, LBP-2 (Caenorhabditis elegans, UniProt Q20224).
T1 sequence (Q20224 19-161): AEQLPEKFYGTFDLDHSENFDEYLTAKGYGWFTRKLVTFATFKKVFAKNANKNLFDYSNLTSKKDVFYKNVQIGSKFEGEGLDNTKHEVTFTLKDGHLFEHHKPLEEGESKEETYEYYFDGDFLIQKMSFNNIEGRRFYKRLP
The experiment in a line: mass spectrometry of fatty acids bound after incubation with C. elegans lipid extract. Type of test: binding. The conditions noted are these: competition within C. elegans lipid extract.

Test [2] deals with T2, LBP-3 (Caenorhabditis elegans, UniProt Q20222).
T2 sequence (Q20222 16-165): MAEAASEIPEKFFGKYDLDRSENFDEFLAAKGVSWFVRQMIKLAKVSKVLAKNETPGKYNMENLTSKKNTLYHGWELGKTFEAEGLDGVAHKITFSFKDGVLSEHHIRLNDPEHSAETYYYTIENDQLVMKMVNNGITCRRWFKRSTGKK
The experiment in a line: competitive fluorescence displacement of […],8-ANS. The class given is binding. As to conditions: one-site Fit Ki; competition with 1,8-ANS probe.

Take `CCCCC/C=C\C/C=C\C/C=C\CCCCCCC(=O)O` [DGLA, dihomo-γ-linolenic acid]: the “% occupancy among bound PUFAs” value in test [1] is 1%. In test [2], binding was characterised by a dissociation constant (Kd) of 11 µM.

For `CC/C=C\C/C=C\C/C=C\C/C=C\C/C=C\CCCC(=O)O` [EPA, eicosapentaenoic acid], the “% occupancy among bound PUFAs” value in test [1] came to 6%. For the same molecule, the Kd (in general, a measure of binding affinity in units of concentration) in test [2] was 4.76 µM.
